Among the data in US9034861B2, “MEK inhibitors useful in the treatment of diseases” (Allomek Therapeutics LLC, priority 2009, dated 2015) are IC50 values, retold here.

SMILES strings stand for the structures. Read-outs that look alike come from different tables or passages of the source.

The test system of one test is HT29 cells. As to the kind of experiment: Proliferation / cell survival assay (CellTiterGlo, 72 hour). It counts as cell-based. As to the method: (§1) In vitro studies of variety of tumor cells lines with prevalent mutations in RAS/RAF genes were performed for anti-proliferative activity (functional assay). This was compared with wild type cell line for selectivity. MEK kinase assay was performed in the presence and in the absence of ATP to define its allosteric inhibitory mode of action; Effect on ERK phosphorylation was studied to establish its cellular mechanism of action.
(§2) Colo205, Caki-1, HepG2, HCT116 and HT29 cells were obtained from American Type Culture Collection. Colo205, Caki-1, HepG2 cells were grown in RPMI 1640 medium supplemented with L-glutamine (Invitrogen) and 10% Fetal Bovine Serum (Hyclone) at 37° C. in a humidified, 5% CO2 incubator. HCT116 and HT29 cells were grown in DMEM medium supplemented with L-glutamine (Invitrogen) and 10% Fetal Bovine Serum (Hyclone) at 37° C. in a humidified, 5% CO2 incubator.
(§3) Proliferation assay was done by plating 2,000 cells/well in 100 μL of DMEM/10% FBS or RPMI/10% media in a 96-well plate and incubated overnight at 37° C. in a humidified, 5% CO2 incubator. Media was replaced with fresh 100 μL of fresh RPMI/10% FBS media or DMEM/10% FBS media containing various concentrations of the compounds. Compounds were added at 3-fold dilutions, concentrations ranging from 3.3 μM to 4.5 nM. After 72 hour incubation with the compounds at 37° C. in a humidified, 5% CO2 incubator, cell viability was measured in a luminometer after the addition of 100 μL/well CellTiterGlo reagent (Promega). IC50s were calculated using SoftMax software.

The subject of the next test is Colo205 cells. Described as above. The settings on record: Homo sapiens, COLO 205; Colo205, BRAF mutation; average of two experiments; read-out: IC50, in vitro cell survival / proliferation. Type of test: cell-based. As to the method: as §1, §2, §3
The next test relates to HCT116 cells. The test is described as above. Type of test: cell-based. The settings on record: Homo sapiens, HCT-116; HCT116, K-Ras mutation; average of two experiments; read-out: IC50, in vitro cell survival / proliferation. As to the method:
as §1, §2, §3

The subject of the next test is HepG2 cells. Described as above. It counts as cell-based. Conditions: Homo sapiens; HepG2, N-Ras mutation; average of two experiments; read-out: IC50, in vitro cell survival / proliferation. As to the method: as §1, §2, §3
The subject of another test is Caki-1 cells. The test is described as above. It counts as cell-based. Conditions: Homo sapiens; Caki (Caki-1), WT; average of two experiments; read-out: IC50, in vitro cell survival / proliferation. As to the method: as §1, §2, §3
For test [1], the target named is T1, recombinant full-length human GST-MEK1 (Homo sapiens, UniProt Q02750).
T1 construct: Purified recombinant full-length human GST-MEK1; GST; purchased Cell Signaling Technology, Inc (Beverly, Mass., USA)
T1 sequence (Q02750 whole entry): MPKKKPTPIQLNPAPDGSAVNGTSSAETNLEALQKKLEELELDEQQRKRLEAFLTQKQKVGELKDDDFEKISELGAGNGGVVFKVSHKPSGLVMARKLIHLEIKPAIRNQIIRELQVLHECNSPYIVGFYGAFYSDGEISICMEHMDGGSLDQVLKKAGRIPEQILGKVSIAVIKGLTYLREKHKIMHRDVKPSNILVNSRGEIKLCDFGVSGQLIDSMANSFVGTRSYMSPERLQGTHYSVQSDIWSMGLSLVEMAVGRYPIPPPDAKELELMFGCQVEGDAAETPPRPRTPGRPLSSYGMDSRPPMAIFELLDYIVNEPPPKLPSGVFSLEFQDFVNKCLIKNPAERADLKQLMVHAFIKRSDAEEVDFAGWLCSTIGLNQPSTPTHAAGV
In words: MEK Enzyme Inhibitory Assay (ADP-Glo). It counts as biochemical. The procedure: Materials and preparation of reagents: Purified recombinant full-length human GST-MEK1 was purchased from Cell Signaling Technology, Inc (Beverly, Mass., USA). MAP kinase substrate Erk1/Erk2 peptide was purchased from Enzo Life Sciences (Plymouth Meeting, Pa., USA).
Determination of enzymatic activity: Compounds were diluted three-fold in dimethylsulfoxide (DMSO) ranging from 1 mM to 1.37 μM concentration. A typical 20-microliter assay contained 80 ng MEK1, 4 μg Erk1/Erk2 peptide, 100 μM or 1 mM ATP, 1 μM to 1.37 nM test compound in 1× assay buffer containing 5 mM MOPS, pH 7.2, 2.5 mM β-glycerophosphate, 1 mM EGTA, 0.4 mM EDTA, 5 mM MgCl2, 0.05 mM DTT. Enzyme reaction was incubated at room temperature for 90 minutes. At the end of kinase reaction, 20 μL of ADP-Glo reagent (Promega, Madison, Wis., USA) was added and incubated at room temperature for 40 minutes. Forty μL of kinase detection reagent (Promega) was added and incubated at room temperature for 1 h. Chemiluminescence was read and IC50s calculated using SoftMax software.

Setting [2] is: Homo sapiens, HT-29, HT29 proliferation, class symbols, read-out: HT29 IC50.
Where [3] appears, read: Homo sapiens, HT-29, HT29, BRAF mutation, average of two experiments, read-out: IC50, in vitro cell survival / proliferation.

With `O=S1(=O)Nc2c(Nc3ccc(I)cc3F)cc(F)cc2OCC(O)C(O)CC12CC2` (centres unmarked) [Example 13], the IC50 in the test with HT29 cells (setting [2]) is less than 0.1 µM. In the case of `COc1cc(F)c(F)c(Nc2ccc(I)cc2F)c1NS(=O)(=O)C1(C[C@H](O)CO)CC1` [RDEA 119, reference compound], the IC50 is 0.02 µM with Colo205 cells; 0.461 µM in the test with HCT116 cells; 0.02 µM in the test on HT29 cells (setting [3]); 0.017 µM with HepG2 cells; greater than 1 µM in the test with Caki-1 cells. Turning to `COc1cc(F)c(NS(=O)(=O)C2(CC(O)CO)CC2)c(Nc2ccc(I)cc2F)c1F` (centres unmarked) [Example 15, N-(3,6-difluoro-2-(2-fluoro-4-iodophenylamino)-4-methoxyphenyl)-1-(2,3-dihydroxypropyl)cyclopropane-1-sulfonamide], the IC50 in the test on HT29 cells (setting [2]) is 0.1 to 0.5 µM. As for `O=S1(=O)Nc2c(cc(F)c(F)c2Nc2ccc(I)cc2F)OCC(O)C(O)CC12CC2` (racemic) [Example 8], the IC50 was 0.021 µM in test [1]; 0.017 µM in the test on Colo205 cells; 0.544 µM in the test on HCT116 cells; 0.021 µM in the test with HT29 cells (setting [3]); less than 0.1 µM in the test with HT29 cells (setting [2]); 0.015 µM in the test on HepG2 cells. Further, in the test with Caki-1 cells, the IC50 is greater than 1 µM. For `COc1cc(F)c(NS(=O)(=O)C2(CC(O)CO)CC2)c(Nc2ccc(Br)cc2F)c1F` (centres unmarked) [Example 16], in the test with HT29 cells (setting [2]), the IC50 was greater than 0.5 µM. Same read-out and setting: the same measure for `O=S1(=O)Nc2c(cc(F)c(F)c2Nc2ccc(I)cc2F)OCCCCC12CC2` [Example 19]: greater than 0.5 µM; for `O=S1(=O)Nc2c(cc(F)c(F)c2Nc2ccc(I)cc2F)OCC(O)C(O)CC12CC2` (single isomer, unassigned) [Example 8b]: 0.1 to 0.5 µM; for `O=S1(=O)Nc2c(cc(F)c(F)c2Nc2ccc(I)cc2F)OC/C=C/CC12CC2` [Example 1]: 0.1 to 0.5 µM. For `O=S1(=O)Nc2c(cc(F)c(F)c2Nc2ccc(I)cc2Cl)OCC(O)C(O)CC12CC2` (centres unmarked) [Example 11], the IC50 in the test with HT29 cells (setting [2]) lay within 0.1 to 0.5 µM. As for `O=S1(=O)Nc2c(cc(F)c(F)c2Nc2ccc(I)cc2F)OCC(O)C(O)CC12CC2` (single isomer, unassigned) [Example 8a], the IC50 with HT29 cells (HT29 proliferation, class symbols, read-out: HT29 IC50) was less than 0.1 µM. On to `COc1cc(F)c(NS(=O)(=O)C2(CC(O)CO)CC2)c(Nc2ccc(I)cc2F)c1` (centres unmarked) [Example 17], for which the IC50 in the test on HT29 cells (setting [2]) is less than 0.1 µM. On the same count and under the same terms, the same measure for `O=S1(=O)Nc2c(cc(F)c(F)c2Nc2ccc(Br)cc2F)OCC(O)C(O)CC12CC2` (centres unmarked) [Example 9]: greater than 0.5 µM.

As to `O=S1(=O)Nc2c(cc(F)c(F)c2Nc2ccc(I)cc2)OCC(O)C(O)CC12CC2` (centres unmarked) [Example 10], the IC50 in the test on HT29 cells (setting [2]) is 0.1 to 0.5 µM.
